Earlier results, collected in US20220288212A1, “FULLERENE P[…] AND METHODS” (Sinapu LLC, priority 2021, published 2022).

Key:
[1] = room temperature
[2] = minimum of from 2.5 to 3 grams of EGCG ingested per day

Question: For `O=C(O[C@@H]1Cc2c(O)cc(O)cc2O[C@@H]1c1cc(O)c(O)c(O)c1)c1cc(O)c(O)c(O)c1` [EGCG, epigallocatechin gallate], which “maximum solubility in water” value [1] is on record?
Answer: 92 grams per liter

Question: And the blood serum concentration [2]?
Answer: 0.1 to 1 µM
